Data set [1] relates to human MV-4-11 cell strain. The experiment in a line: MTS in vitro antiproliferative activity. The conditions noted are these: MV4-11, 72 hours, read-out: IC50, in vitro proliferation of human MV-4-11 cell strain. It is filed as cell-based. The protocol: The human acute leukemia cell MV-4-11 is an Flt-3 mutant cell strain. The MTS method was used to determine the in vitro antiproliferative activity of the compound against MV-4-11 (derived from ATCC): trypsinizing the cells in the logarithmic growth phase, counting them, resuspending an appropriate number of the cells in the culture solution, adding the culture solution to the 96-well plate by 150 μL per well, and culturing it overnight. After that, 50 μL of 4-fold serially diluted test compound or control culture solution was added to each well, and cultured for 72 hours. The culture solution was drained, and 120 μL of MTS detection solution (100 μL of fresh culture medium and 20 μL of MTS solution) was added to each well, and incubated at 37° C., and the OD490 value was read. Graphpad Prism5 software was used to analyze and process the data to obtain IC50.

The subject of data set [2] is MV-4-11 transplanted tumor. The experiment in a line: MV-4-11 subcutaneously transplanted tumor in nude mice. It is filed as in vivo, Balb/c nude mice. Conditions: for Average volume of tumor d15: d15 (start of administration); for Average volume of tumor d15 / Average volume of tumor d36: mean ± S.E, n=6; for Average volume of tumor d36 / anti-tumor effect (in words): 21 days.
Source text: The formula of calculating the tumor volume (TV) is TV=½×a×b^2, where a represents the long diameter of the tumor and b represents the short diameter of the tumor.

A further data set has as its target FGFR1 (Homo sapiens (Human), UniProt P11362). Put plainly: HTRF in vitro tyrosine kinase inhibition. It is filed as biochemical. Conditions: ATP 120 μM, read-out: IC50 against FGFR1. The protocol: (§1) The in vitro inhibitory activity of the compounds on tyrosine kinase was measured by HTRF (Homogeneous Time-Resolved Fluorescence) method.
(§2) The compounds were serially diluted with DMSO in a 96-well plate into 8 solutions of different concentrations with 100 times the final concentration. Then a buffer solution, which was prepared by adding 5 mM MgCl2 and 1 mM DTT to 1-fold Enzymetic buffer provided by the kit, was diluted in a 96-well plate into a solution with 5 times the final concentration.
(§3) The diluted compounds were added to a 384-well plate, respectively, and double wells were provided for each concentration. Then 0.25 ng of kinase was added per well. At the same time, negative and positive wells were provided, and the well to which 5% DMSO of the same volume was added was taken as control. […] Preincubation was carried out for 10 minutes at room temperature. A substrate with a final concentration of 1 μM and ATP with a final concentration of 120 μM were added, and incubated at room temperature for 90 minutes. Then, a fluorescent acceptor (XL665 labeled streptavidin) with a final concentration of 0.0625 μM and 1-fold fluorescent donor (Europium cryptate labeled TK antibody) with a final concentration of 0.0625 μM were added, and incubated at room temperature for 60 minutes. The plates were read by a microplate reader under the conditions of λex=330 nm, λem=620 nm and λem=665 nm. A ratio between the reading at 665 nm and the reading at 620 nm was calculated, and the inhibition rate was calculated according to this ratio.
In general terms: TR-FRET usually uses a lanthanide donor and a delayed reading to cut background.

The next data set addresses KDR (VEGFR2) (Homo sapiens (Human), UniProt P35968). The experiment in a line: HTRF in vitro tyrosine kinase inhibition. It counts as biochemical. The conditions noted are these: ATP 120 μM, read-out: IC50 against KDR. The protocol:
as §1, §2, §3

For another data set, the target named is PDGFRβ (Homo sapiens (Human), UniProt P09619). The experiment in a line: HTRF in vitro tyrosine kinase inhibition. The conditions noted are these: ATP 120 μM, read-out: IC50 against PDGFRβ. It counts as biochemical. The protocol: as §1, §2, §3
Chain of PDGFRβ (P09619 33-1106, species assumed): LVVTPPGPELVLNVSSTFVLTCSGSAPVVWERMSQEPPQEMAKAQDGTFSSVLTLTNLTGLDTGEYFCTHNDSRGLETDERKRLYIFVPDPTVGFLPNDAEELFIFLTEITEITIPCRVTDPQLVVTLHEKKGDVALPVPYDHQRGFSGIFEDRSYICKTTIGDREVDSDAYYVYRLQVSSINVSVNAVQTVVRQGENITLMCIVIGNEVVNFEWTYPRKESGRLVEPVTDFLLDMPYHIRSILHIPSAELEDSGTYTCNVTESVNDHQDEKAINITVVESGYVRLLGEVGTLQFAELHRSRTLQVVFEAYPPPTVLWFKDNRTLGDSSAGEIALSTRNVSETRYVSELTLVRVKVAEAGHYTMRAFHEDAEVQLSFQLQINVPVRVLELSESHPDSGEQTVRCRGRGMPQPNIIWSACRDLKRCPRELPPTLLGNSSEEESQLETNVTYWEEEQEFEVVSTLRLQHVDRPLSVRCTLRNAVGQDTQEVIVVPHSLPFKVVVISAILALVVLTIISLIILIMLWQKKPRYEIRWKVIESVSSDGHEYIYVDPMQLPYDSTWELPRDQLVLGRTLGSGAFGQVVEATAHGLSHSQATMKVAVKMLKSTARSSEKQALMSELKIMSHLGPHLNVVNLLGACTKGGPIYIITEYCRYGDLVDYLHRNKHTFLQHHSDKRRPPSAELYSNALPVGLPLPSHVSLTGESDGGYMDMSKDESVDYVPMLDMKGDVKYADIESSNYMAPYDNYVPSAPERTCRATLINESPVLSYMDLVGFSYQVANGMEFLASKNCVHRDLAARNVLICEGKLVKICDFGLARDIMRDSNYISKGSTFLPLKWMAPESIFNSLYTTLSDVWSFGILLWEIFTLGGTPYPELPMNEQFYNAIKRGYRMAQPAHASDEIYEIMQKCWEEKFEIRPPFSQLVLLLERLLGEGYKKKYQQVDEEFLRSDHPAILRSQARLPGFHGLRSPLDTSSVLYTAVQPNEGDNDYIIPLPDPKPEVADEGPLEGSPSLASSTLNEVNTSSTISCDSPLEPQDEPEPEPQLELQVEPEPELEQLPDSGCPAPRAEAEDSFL
The target in the next data set is FLT3 (Homo sapiens (Human), UniProt P36888). The experiment in a line: HTRF in vitro tyrosine kinase inhibition. It counts as biochemical. Conditions: ATP 120 μM, read-out: IC50 against FLT3. The protocol: as §1, §2, §3
The next data set addresses FLT3-ITD (Homo sapiens, UniProt P36888, ITD). The experiment in a line: HTRF in vitro tyrosine kinase inhibition. It counts as biochemical. The protocol: as §1, §2, §3
A further data set has as its target RET (Homo sapiens (Human), UniProt P07949). The experiment in a line: HTRF in vitro tyrosine kinase inhibition. Conditions: ATP 120 μM, read-out: IC50 against RET. It counts as biochemical. The protocol:
as §1, §2, §3

In a further data set the target is FLT3 D835Y (Homo sapiens (Human), UniProt P36888, D835Y). Put plainly: HTRF in vitro tyrosine kinase inhibition. It counts as biochemical. Conditions: ATP 120 μM, read-out: IC50 against FLT3 D835Y. The protocol:
as §1, §2, §3

Another data set has as its target c-Kit (Homo sapiens (Human), UniProt P10721). The experiment in a line: HTRF in vitro tyrosine kinase inhibition. It is filed as biochemical. The conditions noted are these: ATP 120 μM, read-out: IC50 against c-Kit. The procedure: as §1, §2, §3
In the next data set the target is ALK (Homo sapiens (Human), UniProt Q9UM73). Put plainly: HTRF in vitro tyrosine kinase inhibition. It counts as biochemical. The conditions noted are these: ATP 120 μM, read-out: IC50 against ALK. The protocol: as §1, §2, §3
Chain of ALK (Q9UM73 19-1620, species assumed): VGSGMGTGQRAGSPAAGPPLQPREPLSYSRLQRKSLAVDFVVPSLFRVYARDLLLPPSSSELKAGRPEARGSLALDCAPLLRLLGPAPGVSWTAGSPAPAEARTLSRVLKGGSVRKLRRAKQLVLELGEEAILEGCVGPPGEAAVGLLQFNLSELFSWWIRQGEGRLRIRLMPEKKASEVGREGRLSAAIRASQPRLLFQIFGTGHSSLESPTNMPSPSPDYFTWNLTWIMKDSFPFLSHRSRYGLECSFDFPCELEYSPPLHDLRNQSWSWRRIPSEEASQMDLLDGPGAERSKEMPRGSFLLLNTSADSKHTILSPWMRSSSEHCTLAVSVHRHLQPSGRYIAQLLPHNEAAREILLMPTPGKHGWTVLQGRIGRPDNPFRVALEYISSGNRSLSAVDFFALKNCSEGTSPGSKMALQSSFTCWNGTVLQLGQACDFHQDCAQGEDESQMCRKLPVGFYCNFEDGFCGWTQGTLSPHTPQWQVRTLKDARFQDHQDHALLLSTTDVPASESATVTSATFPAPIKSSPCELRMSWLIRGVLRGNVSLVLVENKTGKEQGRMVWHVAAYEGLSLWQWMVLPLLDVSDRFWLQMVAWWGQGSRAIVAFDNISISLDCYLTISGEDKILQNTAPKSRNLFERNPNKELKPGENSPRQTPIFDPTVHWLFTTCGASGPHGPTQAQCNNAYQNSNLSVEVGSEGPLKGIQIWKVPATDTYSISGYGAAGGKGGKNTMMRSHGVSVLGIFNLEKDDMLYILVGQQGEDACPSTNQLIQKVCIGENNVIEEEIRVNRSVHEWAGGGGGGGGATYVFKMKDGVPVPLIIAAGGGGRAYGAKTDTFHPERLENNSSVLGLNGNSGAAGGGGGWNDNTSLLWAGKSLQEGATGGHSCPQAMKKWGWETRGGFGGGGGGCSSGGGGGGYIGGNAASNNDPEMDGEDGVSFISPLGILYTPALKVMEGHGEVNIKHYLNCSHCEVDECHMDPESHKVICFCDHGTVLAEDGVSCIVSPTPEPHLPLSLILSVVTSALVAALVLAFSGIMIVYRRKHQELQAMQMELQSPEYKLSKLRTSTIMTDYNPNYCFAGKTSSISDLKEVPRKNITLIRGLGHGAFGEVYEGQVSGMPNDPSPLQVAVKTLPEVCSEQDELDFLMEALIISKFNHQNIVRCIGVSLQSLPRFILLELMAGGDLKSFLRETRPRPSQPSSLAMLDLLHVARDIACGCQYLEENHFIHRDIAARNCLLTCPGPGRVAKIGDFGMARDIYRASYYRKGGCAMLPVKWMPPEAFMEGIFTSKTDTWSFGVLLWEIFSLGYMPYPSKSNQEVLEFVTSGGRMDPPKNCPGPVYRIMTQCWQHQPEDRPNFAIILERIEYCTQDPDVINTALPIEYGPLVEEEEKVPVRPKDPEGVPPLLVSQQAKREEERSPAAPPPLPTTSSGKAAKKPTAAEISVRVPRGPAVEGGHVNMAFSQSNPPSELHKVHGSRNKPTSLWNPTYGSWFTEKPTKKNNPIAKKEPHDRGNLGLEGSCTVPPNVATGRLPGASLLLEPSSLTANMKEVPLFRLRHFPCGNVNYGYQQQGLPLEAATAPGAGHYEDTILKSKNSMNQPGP
The test system of data set [3] is relapsed or refractory AML. The conditions noted are these: cited from earlier work.
Data set [4] relates to MV-4-11 (FLT3-ITD) xenograft tumor. Conditions: oral 20 mg/kg/d; cited from earlier work.
A further data set relates to FLT3 phosphorylation. The conditions noted are these: dose of no less than 200 mg; cited from earlier work.
The conditions of data set [5]: 29 AML patients, single dose 50 mg to 350 mg; cited from earlier work.
A short description of data set [6]: Toxicity and animal's weight in MV-4-11 nude mouse study. The conditions noted are these: 80 mg/kg intragastric, 21 days. The protocol:
MV-4-11 cells (FLT3-ITD mutant human acute biphenotypic myeloid leukemia cell strain, ATCC) were cultured and expanded in vitro, and the cells in the logarithmic growth phase were collected and resuspended in a serum-free EMEM culture solution, and the cell suspension was injected subcutaneously with a syringe into the armpit of the front right limb of male Balb/c nude mice.

Where [7] appears, read: 10 mg/kg intragastric once a day.
The mark [8] stands for this setting: 80 mg/kg intragastric once a day.

Marks after values point to notes of the source that are not given here.

Chain of KDR (VEGFR2) (P35968 20-1356): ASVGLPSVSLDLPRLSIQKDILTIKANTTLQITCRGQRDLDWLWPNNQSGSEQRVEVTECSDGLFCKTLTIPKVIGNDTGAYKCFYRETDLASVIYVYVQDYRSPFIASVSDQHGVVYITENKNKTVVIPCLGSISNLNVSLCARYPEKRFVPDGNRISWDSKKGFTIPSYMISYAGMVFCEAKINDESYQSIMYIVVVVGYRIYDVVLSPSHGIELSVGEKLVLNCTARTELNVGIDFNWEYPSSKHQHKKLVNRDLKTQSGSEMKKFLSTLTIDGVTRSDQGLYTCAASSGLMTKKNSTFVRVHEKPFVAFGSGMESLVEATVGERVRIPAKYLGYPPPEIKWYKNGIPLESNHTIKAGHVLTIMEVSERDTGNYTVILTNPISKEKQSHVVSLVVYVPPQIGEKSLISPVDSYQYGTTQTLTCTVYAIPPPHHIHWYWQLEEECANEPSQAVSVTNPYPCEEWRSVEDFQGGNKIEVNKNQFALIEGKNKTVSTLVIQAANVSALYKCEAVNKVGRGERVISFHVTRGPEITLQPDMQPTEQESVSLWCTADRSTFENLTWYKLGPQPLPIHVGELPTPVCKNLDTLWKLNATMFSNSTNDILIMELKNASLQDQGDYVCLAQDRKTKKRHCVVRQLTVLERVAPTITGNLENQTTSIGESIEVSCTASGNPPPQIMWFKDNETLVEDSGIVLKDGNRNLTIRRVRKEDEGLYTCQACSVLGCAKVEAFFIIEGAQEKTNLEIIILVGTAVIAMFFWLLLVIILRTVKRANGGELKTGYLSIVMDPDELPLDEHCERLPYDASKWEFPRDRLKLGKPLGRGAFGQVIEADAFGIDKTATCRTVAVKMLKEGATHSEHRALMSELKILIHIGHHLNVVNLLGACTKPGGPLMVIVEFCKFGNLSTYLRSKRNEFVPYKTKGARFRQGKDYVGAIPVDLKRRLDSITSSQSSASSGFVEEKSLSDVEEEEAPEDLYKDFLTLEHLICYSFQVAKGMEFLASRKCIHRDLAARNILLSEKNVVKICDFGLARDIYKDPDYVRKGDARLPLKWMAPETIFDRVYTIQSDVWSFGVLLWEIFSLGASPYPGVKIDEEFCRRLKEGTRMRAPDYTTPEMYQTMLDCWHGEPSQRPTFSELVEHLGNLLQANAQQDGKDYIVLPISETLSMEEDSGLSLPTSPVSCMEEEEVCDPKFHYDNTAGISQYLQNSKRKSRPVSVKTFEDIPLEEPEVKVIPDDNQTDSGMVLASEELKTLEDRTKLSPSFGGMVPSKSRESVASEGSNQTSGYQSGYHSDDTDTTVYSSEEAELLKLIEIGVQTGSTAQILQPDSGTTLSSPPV
Chain of RET (P07949 29-1114, species assumed): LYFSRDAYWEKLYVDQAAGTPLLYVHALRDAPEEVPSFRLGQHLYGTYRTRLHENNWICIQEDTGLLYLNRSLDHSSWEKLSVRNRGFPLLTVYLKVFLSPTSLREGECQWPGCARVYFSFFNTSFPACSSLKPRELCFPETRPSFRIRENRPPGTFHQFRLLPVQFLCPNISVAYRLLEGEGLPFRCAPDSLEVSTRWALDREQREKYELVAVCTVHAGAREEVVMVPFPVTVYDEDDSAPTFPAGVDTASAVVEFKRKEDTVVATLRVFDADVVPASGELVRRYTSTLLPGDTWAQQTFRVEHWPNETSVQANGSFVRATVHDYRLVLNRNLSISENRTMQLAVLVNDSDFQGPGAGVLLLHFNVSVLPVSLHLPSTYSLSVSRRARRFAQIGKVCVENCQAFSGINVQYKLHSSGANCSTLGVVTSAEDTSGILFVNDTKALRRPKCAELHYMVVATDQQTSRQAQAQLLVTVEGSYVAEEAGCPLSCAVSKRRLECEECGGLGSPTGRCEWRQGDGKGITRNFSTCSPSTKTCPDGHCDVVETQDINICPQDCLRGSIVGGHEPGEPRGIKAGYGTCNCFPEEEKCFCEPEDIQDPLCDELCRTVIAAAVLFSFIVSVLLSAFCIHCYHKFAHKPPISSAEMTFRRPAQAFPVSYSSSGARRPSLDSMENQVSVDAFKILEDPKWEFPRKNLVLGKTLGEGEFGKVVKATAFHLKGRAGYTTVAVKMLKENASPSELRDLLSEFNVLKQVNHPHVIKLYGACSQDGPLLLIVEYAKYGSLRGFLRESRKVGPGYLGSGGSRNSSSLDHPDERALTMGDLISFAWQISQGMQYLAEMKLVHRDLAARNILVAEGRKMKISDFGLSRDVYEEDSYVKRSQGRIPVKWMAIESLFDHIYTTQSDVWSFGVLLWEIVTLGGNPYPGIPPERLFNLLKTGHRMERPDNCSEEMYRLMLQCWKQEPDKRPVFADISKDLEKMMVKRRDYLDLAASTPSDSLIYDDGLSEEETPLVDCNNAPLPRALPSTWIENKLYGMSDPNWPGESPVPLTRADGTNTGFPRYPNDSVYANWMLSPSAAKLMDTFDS

Consider `Cc1[nH]c(/C=C2\C(=O)Nc3ccc(F)cc32)c(C)c1NC(=O)N1CCN(C)CC1` [Compound 2], for which the IC50 in data set [1] was 0.178 µM.

For the compound `CCN1CCN(C(=O)Nc2c(C)[nH]c(/C=C3\C(=O)Nc4ccc(F)cc43)c2C)CC1` [Compound 3], the IC50 in [1] stood at 0.138 µM.

Turning to `CNC1CCN(C(=O)Nc2c(C)[nH]c(/C=C3\C(=O)Nc4ccc(F)cc43)c2C)CC1.Cl` [Compound 5], the “Average volume of tumor d15” value in [2] (2.5 mg/kg group) is listed as 167.76 ± 11.65 mm^3; in data set [2] (5 mg/kg group) it was 167.69 ± 11.70 mm^3; in data set [2] (10 mg/kg group) it was 167.75 ± 11.59 mm^3; in [2] (80 mg/kg group), 167.79 ± 13.04 mm^3; in data set [2] (160 mg/kg group), 167.59 ± 11.93 mm^3. The “Average volume of tumor d36” value in data set [2] (2.5 mg/kg intragastric once a day, hydrochloride) was 359.18 ± 49.62** mm^3; in data set [2] (5 mg/kg intragastric once a day, hydrochloride) it was 34.71 ± 4.32** mm^3; in data set [2] (setting [7]), 28.41 ± 3.38** mm^3; in data set [2] (setting [8]), 19.60 ± 4.21** mm^3; in [2] (160 mg/kg intragastric once a day, hydrochloride), 20.74 ± 1.38** mm^3. The “anti-tumor effect (in words)” value is “notable inhibition on the growth of the transplanted tumor” in data set [2] (2.5 mg/kg intragastric) and “the transplanted tumor subsided” in data set [2] (dose of no less than 5 mg/kg intragastric). In addition, the IC50 is 2.34 µM on FGFR1; 0.891 µM at KDR (VEGFR2); 0.19 µM on PDGFRβ; 0.0088 µM at FLT3; under 0.0015 µM at FLT3-ITD; 0.11 µM on RET. Besides, the IC50 on FLT3 D835Y is 0.0173 µM; at c-Kit it was 0.286 µM; on ALK, 4.9 µM; in data set [1] it was 0.066 µM.

For `Cc1[nH]c(/C=C2\C(=O)Nc3ccc(F)cc32)c(C)c1NC(=O)NC1CCN(C)CC1` [Compound 7], in data set [1], the IC50 is 0.0822 µM.

Regarding `CCN(CC)CCNC(=O)c1c(C)[nH]c(/C=C2\C(=O)Nc3ccc(F)cc32)c1C` [Sunitinib], the “Average volume of tumor d15” value in data set [2] (10 mg/kg group) is given as 167.64 ± 12.88 mm^3; in data set [2] (80 mg/kg group), 167.62 ± 13.27 mm^3. Moreover, the “Average volume of tumor d36” value in data set [2] (setting [7]) is listed as 178.93 ± 13.89** mm^3; in data set [2] (setting [8]) it was 22.17 ± 1.95** mm^3. In addition, the “toxic reaction (in words)” value in data set [3] (75 mg group) is “grade 4 dose-limiting fatigue and hypertension”. Moreover, in data set [3] (16 patients, 50 or 75 mg·d^−1), the morphological reaction was 1 case. Moreover, the “partial reaction (PR)” value in data set [3] (16 patients, 50 or 75 mg·d^−1) is given as 5 cases. Further, the “tumor inhibitory effect (in words)” value in data set [4] is reported as “significant tumor inhibitory effect”. Besides, the “patients with strong inhibitory effect on FLT3 phosphorylation” value in the data set with FLT3 phosphorylation is “more than 50%”. Besides, the “patients with drug-related adverse reactions” value in data set [5] is listed as 31%. Moreover, the IC50 in data set [1] amounted to 0.0743 µM. Besides, in data set [6], the “animal's weight (in words)” value is “decreased significantly”.
